Experimental data from US10968215B2 (SHANGHAI HAIHE PHARMACEUTICAL CO., LTD., priority 2016, dated 2021).

Target: PRC2 complex (EZH2 Y641F/EED/SUZ12/RbAp48/AEBP2) (Homo sapiens (Human), UniProt Q15910, Y641F)
Assay: Activity of a compound to PRC2 complex (EZH2 Y641F), HTRF
Conditions: not given

PRC2 complex (EZH2 Y641F/EED/SUZ12/RbAp48/AEBP2), sequence (Q15910 whole entry Y641F): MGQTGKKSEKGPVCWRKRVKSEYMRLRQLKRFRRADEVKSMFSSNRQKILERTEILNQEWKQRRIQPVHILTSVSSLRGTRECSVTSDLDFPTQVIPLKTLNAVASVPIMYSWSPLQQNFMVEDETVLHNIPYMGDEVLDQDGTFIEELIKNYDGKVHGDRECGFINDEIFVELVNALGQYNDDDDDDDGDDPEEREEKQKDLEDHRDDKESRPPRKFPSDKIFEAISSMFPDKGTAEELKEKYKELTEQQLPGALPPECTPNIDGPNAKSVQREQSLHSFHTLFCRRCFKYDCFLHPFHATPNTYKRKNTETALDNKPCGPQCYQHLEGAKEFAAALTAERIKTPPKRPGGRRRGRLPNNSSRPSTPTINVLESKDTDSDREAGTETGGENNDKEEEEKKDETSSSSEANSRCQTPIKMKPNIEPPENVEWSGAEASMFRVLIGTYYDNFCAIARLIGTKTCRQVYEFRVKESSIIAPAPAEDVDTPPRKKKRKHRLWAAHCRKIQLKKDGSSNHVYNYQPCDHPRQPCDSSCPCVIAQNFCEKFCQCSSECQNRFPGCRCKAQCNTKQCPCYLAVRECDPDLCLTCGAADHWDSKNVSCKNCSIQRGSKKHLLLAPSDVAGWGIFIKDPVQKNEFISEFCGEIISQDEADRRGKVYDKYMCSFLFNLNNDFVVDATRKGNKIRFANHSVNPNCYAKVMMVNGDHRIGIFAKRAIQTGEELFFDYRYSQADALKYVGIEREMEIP
PRC2 complex (EZH2 Y641F/EED/SUZ12/RbAp48/AEBP2), sequence (O75530 whole entry partner): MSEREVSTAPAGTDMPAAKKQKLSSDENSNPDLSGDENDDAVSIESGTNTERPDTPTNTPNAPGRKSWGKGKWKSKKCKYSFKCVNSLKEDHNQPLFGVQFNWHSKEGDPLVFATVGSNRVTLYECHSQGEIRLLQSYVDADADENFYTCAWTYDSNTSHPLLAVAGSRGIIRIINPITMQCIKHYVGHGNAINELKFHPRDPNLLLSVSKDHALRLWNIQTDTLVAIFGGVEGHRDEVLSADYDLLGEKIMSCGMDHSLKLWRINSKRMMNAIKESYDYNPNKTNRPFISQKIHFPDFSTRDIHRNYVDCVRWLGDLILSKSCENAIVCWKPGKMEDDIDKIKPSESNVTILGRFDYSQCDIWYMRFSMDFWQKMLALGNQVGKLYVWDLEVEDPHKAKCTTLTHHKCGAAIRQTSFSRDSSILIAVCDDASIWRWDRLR
PRC2 complex (EZH2 Y641F/EED/SUZ12/RbAp48/AEBP2), sequence (Q15022 whole entry partner): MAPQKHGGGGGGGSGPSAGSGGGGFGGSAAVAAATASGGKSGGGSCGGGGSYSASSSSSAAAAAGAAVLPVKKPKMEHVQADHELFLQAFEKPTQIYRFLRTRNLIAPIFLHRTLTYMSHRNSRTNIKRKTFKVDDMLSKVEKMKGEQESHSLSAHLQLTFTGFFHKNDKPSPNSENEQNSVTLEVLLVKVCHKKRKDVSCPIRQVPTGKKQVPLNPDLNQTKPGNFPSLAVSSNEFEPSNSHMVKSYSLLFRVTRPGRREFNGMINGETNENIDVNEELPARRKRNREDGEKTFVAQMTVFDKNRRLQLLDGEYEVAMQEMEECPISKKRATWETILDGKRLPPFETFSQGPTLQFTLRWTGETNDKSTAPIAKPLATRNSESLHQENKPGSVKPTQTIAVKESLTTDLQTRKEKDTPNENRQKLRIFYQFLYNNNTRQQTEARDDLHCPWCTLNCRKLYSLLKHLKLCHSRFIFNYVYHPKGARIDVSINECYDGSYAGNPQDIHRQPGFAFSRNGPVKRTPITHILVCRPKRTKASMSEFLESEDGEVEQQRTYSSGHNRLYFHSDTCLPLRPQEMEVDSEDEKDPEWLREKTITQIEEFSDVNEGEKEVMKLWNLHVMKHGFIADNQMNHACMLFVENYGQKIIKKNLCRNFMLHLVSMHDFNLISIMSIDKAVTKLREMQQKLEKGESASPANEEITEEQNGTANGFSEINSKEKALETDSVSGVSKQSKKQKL
PRC2 complex (EZH2 Y641F/EED/SUZ12/RbAp48/AEBP2), sequence (Q09028 whole entry partner): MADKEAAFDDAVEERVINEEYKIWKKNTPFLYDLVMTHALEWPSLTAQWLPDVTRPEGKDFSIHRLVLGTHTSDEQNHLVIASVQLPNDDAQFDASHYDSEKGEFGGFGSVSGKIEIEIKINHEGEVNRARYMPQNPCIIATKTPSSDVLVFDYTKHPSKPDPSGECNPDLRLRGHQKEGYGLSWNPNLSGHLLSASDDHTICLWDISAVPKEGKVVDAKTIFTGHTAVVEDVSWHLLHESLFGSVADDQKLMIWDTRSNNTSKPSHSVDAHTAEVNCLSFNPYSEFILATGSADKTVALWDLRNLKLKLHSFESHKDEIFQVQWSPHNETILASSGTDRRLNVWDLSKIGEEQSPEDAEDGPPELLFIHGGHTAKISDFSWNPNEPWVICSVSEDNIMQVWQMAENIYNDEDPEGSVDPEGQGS
PRC2 complex (EZH2 Y641F/EED/SUZ12/RbAp48/AEBP2), sequence (Q6ZN18 whole entry partner): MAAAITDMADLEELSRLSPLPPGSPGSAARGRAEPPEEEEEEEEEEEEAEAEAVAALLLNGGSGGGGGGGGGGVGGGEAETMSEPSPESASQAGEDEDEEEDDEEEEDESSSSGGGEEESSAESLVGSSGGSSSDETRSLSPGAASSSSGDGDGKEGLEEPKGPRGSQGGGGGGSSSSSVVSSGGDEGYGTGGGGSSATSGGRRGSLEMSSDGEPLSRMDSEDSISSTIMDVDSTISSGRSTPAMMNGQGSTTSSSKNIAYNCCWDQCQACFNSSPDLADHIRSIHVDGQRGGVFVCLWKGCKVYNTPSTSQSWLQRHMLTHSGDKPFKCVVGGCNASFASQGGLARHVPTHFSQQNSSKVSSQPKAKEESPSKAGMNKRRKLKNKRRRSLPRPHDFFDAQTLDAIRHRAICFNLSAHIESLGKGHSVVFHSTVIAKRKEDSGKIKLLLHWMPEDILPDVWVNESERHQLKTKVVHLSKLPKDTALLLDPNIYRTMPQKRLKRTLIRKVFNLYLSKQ

IC50 | SMILES
< 100 nM | Cc1cc(C)c(CNC(=O)c2cc3cc(-c4nccn4C)cn3c(C(C)N3CCOCC3)c2C)c(=O)[nH]1 (stereo not drawn) [Example 79, N-((4,6-dimethyl-2-oxo-1,2-dihydropyridin-3-yl)methyl)-6-methyl-2-(1-methyl-1H-imidazole-2-yl)-5-(1-morpholinoethyl)indolizine-7-carboxamide]

Same assay, conditions: read-out: IC50 (EZH2_Y641F); EZH2 Y641F PRC2 complex, HTRF; class symbols

IC50 | SMILES
< 100 nM | CNc1cc(-c2ccn3c([C@H](C)N4CCN(CC(F)(F)F)CC4)c(C)c(C(=O)NCc4c(OC)cc(C)[nH]c4=O)cc23)ccn1 (single isomer, unassigned) [Compound 181, (S)—N-((4-methoxy-6-methyl-2-oxo-1,2-dihydropyridin-3-yl)methyl)-6-methyl-1-(2-(methylamino)pyridin-4-yl)-5-(1-(4-(2,2,2-trifluoroethyl)piperazin-1-yl)ethyl)indolizine-7-formamide or (R)—N-((4-methoxy-6-methyl-2-oxo-1,2-dihydropyridin-3-yl)methyl)-6-methyl-1-(2-(methylamino)pyridin-4-yl)-5-(1-(4-(2,2,2-trifluoroethyl)piperazin-1-yl)ethyl)indolizine-7-formamide]
< 100 nM | COc1cc(C)[nH]c(=O)c1CNC(=O)c1cc2c(-c3ccn[nH]3)ccn2c(N(C)C2CCN(CC(F)(F)F)CC2)c1C [Compound 202, N-((4-methoxy-6-methyl-2-oxo-1,2-dihydropyridin-3-yl)methyl)-6-methyl-5-(methyl(1-(2,2,2-trifluoroethyl)piperidin-4-yl)amino)-1-(1H-pyrazol-5-yl)indolizine-7-carboxamide]
100 to 1000 nM | Cc1cc(C)c(CNC(=O)c2cc3cccn3c(C(C)OCc3ccccn3)c2C)c(=O)[nH]1 (stereo not drawn) [Example 15, N-((4,6-dimethyl-2-oxo-1,2-dihydropyridin-3-yl)methyl)-6-methyl-5-(1-(pyridine-2-ylmethoxy)ethyl)indolizine-7-carboxamide]
< 100 nM | Cc1cc(C)c(CNC(=O)c2cc3c(-c4ccc(N)nc4)ccn3c([C@H](C)N3CCN(CC(F)(F)F)CC3)c2C)c(=O)[nH]1 (single isomer, unassigned) [Compound 160, (S)-1-(6-aminopyridin-3-yl)-N-((4,6-dimethyl-2-oxo-1,2-dihydropyridin-3-yl)methyl)-6-methyl-5-(1-(4-(2,2,2-trifluoroethyl)piperazin-1-yl)ethyl)indolizine-7-carboxamide or (R) 1-(6-aminopyridin-3-yl)-N-((4,6-dimethyl-2-oxo-1,2-dihydropyridin-3-yl)methyl)-6-methyl-5-(1-(4-(2,2,2-trifluoroethyl)piperazin-1-yl)ethyl)indolizine-7-carboxamide]
100 to 1000 nM | C=C(C)COC(C)c1c(C)c(C(=O)NCc2c(C)cc(C)[nH]c2=O)cc2cccn12 (stereo not drawn) [Example 5, N-((4,6-Dimethyl-2-oxo-1,2-dihydropyridin-3-yl)methyl)-6-methyl-5-(1-((2-methylallyl)oxy)ethyl)indolizine-7-carboxamide]
1000 to 10000 nM | Cc1cc(C)c(CNC(=O)c2cc3cc(Br)cn3c(C(C)N3CCN(C(=O)CO)CC3)c2C)c(=O)[nH]1 (stereo not drawn) [Example 102]
1000 to 10000 nM | Cc1cc(C)c(CNC(=O)c2cc3cccn3c(C(C)OCC(C)C)c2C)c(=O)[nH]1 (stereo not drawn) [Example 6, N-((4,6-Dimethyl-2-oxo-1,2-dihydropyridin-3-yl)methyl)-5-(1-isobutyloxyethyl)-6-methylindolizine-7-carboxamide]
< 100 nM | Cc1cc(C(F)(F)F)c(CNC(=O)c2cc3c(-c4ccc(N)nc4)ccn3c(C(C)N3CCN(CC(F)(F)F)CC3)c2C)c(=O)[nH]1 (stereo not drawn) [Compound 186, 1-(6-aminopyridin-3-yl)-6-methyl-N-((6-methyl-2-oxo-4-(trifluoromethyl)-1,2-dihydropyridine-3-yl)methyl)-5-(1-(4-(2,2,2-trifluoroethyl)piperazin-1-yl)ethyl)indolizine-7-carboxamide]
< 100 nM | COc1cc(-c2ccn3c(C(C)N4CCN(CC(F)(F)F)CC4)c(C)c(C(=O)NCc4c(OC)cc(C)[nH]c4=O)cc23)ccn1 (stereo not drawn) [Compound 193, N-((4-methoxy-6-methyl-2-oxo-1,2-dihydropyridin-3-yl)methyl)-1-(2-methoxypyridine-4-yl)-6-methyl-5-(1-(4-(2,2,2-trifluoroethyl)piperazin-1-yl)ethyl)indolizine-7-carboxamide]
< 100 nM | COc1cc(C)[nH]c(=O)c1CNC(=O)c1cc2c(-c3ccnc(Cl)c3)ccn2c([C@H](C)N2CCN(CC(F)(F)F)CC2)c1C (single isomer, unassigned) [Compound 169, (S)-1-(2-chloropyridin-4-yl)-N-((4-methoxy-6-methyl-2-oxo-1,2-dihydropyridine-3-yl)methyl)-6-methyl-5-(1-(4-(2,2,2-trifluoroethyl)piperazin-1-yl)ethyl)indolizine-7-carboxamide or (R) 1-(2-chloropyridin-4-yl)-N-((4-methoxy-6-methyl-2-oxo-1,2-dihydropyridine-3-yl)methyl)-6-methyl-5-(1-(4-(2,2,2-trifluoroethyl)piperazin-1-yl)ethyl)indolizine-7-carboxamide]

SMILES | IC50
Cc1cc(C)c(CNC(=O)c2cc3cc(Cl)cn3c(C(C)N3CCOCC3)c2C)c(=O)[nH]1 (stereo not drawn) [Example 69, 2-chloro-N-((4,6-dimethyl-2-oxo-1,2-dihydropyridin-3-yl)methyl)-6-methyl-5-(1-morphinolinylethyl)indolizine-7-carboxamide] | < 100 nM
Cc1cc(C)c(CNC(=O)c2cc3cc(-c4ccc(N)nc4)cn3c(C(C)N3CCOCC3)c2C)c(=O)[nH]1 (stereo not drawn) [Example 89, 2-(6-aminopyridin-3-yl)-N-((4,6-dimethyl-2-oxo-1,2-dihydropyridin-3-yl)methyl)-6-methyl-5-(1-morpholinylethyl)indolizine-7-amide] | < 100 nM
COc1cccc(-c2cc3cc(C(=O)NCc4c(C)cc(C)[nH]c4=O)c(C)c(C(C)N4CCOCC4)n3c2)c1 (stereo not drawn) [Example 95] | < 100 nM
Cc1cc(C)c(CNC(=O)c2cc3cc(Br)cn3c(C(C)N3CCC(F)(F)CC3)c2C)c(=O)[nH]1 (stereo not drawn) [Example 122] | 100 to 1000 nM
Cc1cc(C)c(CNC(=O)c2cc3cc(-c4ccn[nH]4)cn3c(C(C)N3CCOCC3)c2C)c(=O)[nH]1 (stereo not drawn) [Example 112, N-((4,6-dimethyl-2-oxo-1,2-dihydropyridin-3-yl)methyl)-6-methyl-5-(1-morpholinoethyl)-2-(pyrazol-5-yl)indolizine-7-carboxamide] | < 100 nM
Cc1cc(C)c(CNC(=O)c2cc3cc(C(=O)N4CCOCC4)cn3c(C(C)N3CCOCC3)c2C)c(=O)[nH]1 (stereo not drawn) [Example 126, N-((4,6-dimethyl-2-oxo-1,2-dihydropyridin-3-yl)methyl)-6-methyl-2-(morpholin-4-carbonyl)-5-(1-morpholinoethyl)indolizine-7-carboxamide] | < 100 nM
Cc1cc(C)c(CNC(=O)c2cc3cc(-c4ccc(CN5CCOCC5)cc4)cn3c(C(C)N3CCOCC3)c2C)c(=O)[nH]1 (stereo not drawn) [Example 39, N-((4,6-dimethyl-2-oxo-1,2-dihydropyridin-3-yl)methyl)-6-methyl-5-(1-morphinolinylethyl)-2-(4-(morphinolinylmethyl)phenyl)indolizine-7-carboxamide] | < 100 nM
